Where a SMILES comes first, the peptide text is derived from it. Bridges are numbered along the chain shown (N, C = ends). [ ]: non-standard residue; d: D form. Trp(1-Me) = Cn1cc(C[C@H](N)C(=O)O)c2ccccc21; β3hW = N[C@H](CC(=O)O)Cc1c[nH]c2ccccc12; 2Nal = N[C@@H](Cc1ccc2ccccc2c1)C(=O)O; AEF = NCCOc1ccc(C[C@H](N)C(=O)O)cc1; 3Pal = N[C@@H](Cc1cccnc1)C(=O)O; αMeL = CC(C)C[C@](C)(N)C(=O)O; β3hK = NCCCC[C@H](N)CC(=O)O; Dab = NCC[C@H](N)C(=O)O; βAla = NCCC(=O)O
Molecular target: T1, human IL-23R (Homo sapiens, UniProt Q5VWK5)
T1 sequence (Q5VWK5 22-629): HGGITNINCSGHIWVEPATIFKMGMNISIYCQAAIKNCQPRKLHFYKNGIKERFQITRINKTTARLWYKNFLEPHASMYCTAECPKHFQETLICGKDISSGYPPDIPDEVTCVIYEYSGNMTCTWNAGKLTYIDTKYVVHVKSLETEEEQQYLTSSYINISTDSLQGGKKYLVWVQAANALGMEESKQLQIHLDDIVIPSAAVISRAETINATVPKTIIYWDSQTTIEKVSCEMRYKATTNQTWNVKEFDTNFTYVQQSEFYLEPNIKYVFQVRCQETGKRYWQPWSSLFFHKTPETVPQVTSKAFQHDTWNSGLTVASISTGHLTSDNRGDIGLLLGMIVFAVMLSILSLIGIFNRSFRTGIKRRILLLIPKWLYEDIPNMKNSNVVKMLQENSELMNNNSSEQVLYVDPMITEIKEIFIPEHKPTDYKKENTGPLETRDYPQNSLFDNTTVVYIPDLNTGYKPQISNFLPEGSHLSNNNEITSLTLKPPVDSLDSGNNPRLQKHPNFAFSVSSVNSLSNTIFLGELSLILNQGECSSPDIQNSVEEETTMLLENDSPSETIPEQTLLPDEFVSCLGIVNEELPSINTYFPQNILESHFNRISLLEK
Test: biochemical
Conditions: for Emax: read-out: % displacement (hIL-23R NIuc)
Summary of the method: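 Membranes from HEK293 cells stably expressing Nluc-tagged human IL-23R were incubated 2 h at room temperature with test compound and a fluorophore-labelled tracer. After substrate addition, loss of BRET (TAMRA over luciferase emission) reported tracer displacement. A 4PL fit gave IC50 values.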

Row | % displacement (hIL-23R NIuc) [%] | IC50 [nM] | Emax [%] | Structure (SMILES)
1 |  | 3.7 | 99 | CNC(=O)[C@H](Cc1cccnc1)NC(=O)[C@H](CCN)NC(=O)[C@@H]1CCC(=O)NCC[C@@H]2NC(=O)CC[C@H](NC(=O)[C@H](CCC(N)=O)NC(=O)[C@H](Cc3c[nH]c4ccccc34)NC2=O)C(=O)N[C@@H](Cc2ccc(OCCN)cc2)C(=O)N[C@@H](Cc2ccc3ccccc3c2)C(=O)N[C@@](C)(CC(C)C)C(=O)N1 [Compound 94, [Dab](1c)(6c)^†WQE(6c)[Y(2-aminoethoxy)][2-Nal][2-Me-Leu]E(1c)[Dab][3-(3-Pyridyl)-Ala]-[NHMe]]
2 |  | 17 | 98 | CNC(=O)[C@H](Cc1cccnc1)NC(=O)[C@H](CCN)NC(=O)[C@@H]1CCC(=O)NC[C@@H]2NC(=O)CC[C@H](NC(=O)[C@H](CCC(N)=O)NC(=O)[C@H](Cc3c[nH]c4ccccc34)NC2=O)C(=O)N[C@@H](Cc2ccc(OCCN)cc2)C(=O)N[C@@H](Cc2ccc3ccccc3c2)C(=O)N[C@@](C)(CC(C)C)C(=O)N1 [Compound 95, [Dpr](1c)(6c)^†WQE(6c)[Y(2-aminoethoxy)][2-Nal][2-Me-Leu]E(1c)[Dab][3-(3-Pyridyl)-Ala]-[NHMe]]
3 | 101 | 0.061 |  | CNC(=O)[C@H](Cc1cccnc1)NC(=O)[C@H](CCN)NC(=O)[C@@H]1CCC(=O)NCCCC[C@@H]2NC(=O)CC[C@H](NC(=O)[C@H](CCC(N)=O)NC(=O)[C@H](Cc3c[nH]c4ccccc34)NC(=O)C[C@H]([C@@H](C)O)NC2=O)C(=O)N[C@@H](Cc2ccc(OCCN)cc2)C(=O)N[C@@H](Cc2ccc3ccccc3c2)C(=O)N[C@@](C)(CC(C)C)C(=O)N1 [Compound 97, K(1c)(6c)^†[beta-hThr]WQE(6c)[Y(2-aminoethoxy)][2-Nal][2-Me-Leu]E(1c)[Dab][3-(3-Pyridyl)-Ala]-[NHMe]]
4 |  | 150 | 97 | CNC(=O)[C@H](Cc1cccnc1)NC(=O)[C@H](CCN)NC(=O)[C@@H]1CCC(=O)NCCCC[C@H]2CC(=O)N[C@@H](Cc3c[nH]c4ccccc34)CC(=O)N[C@@H](CCC(N)=O)C(=O)N[C@@H](CCC(=O)N2)C(=O)N[C@@H](Cc2ccc(OCCN)cc2)C(=O)N[C@@H](Cc2ccc3ccccc3c2)C(=O)N[C@@](C)(CC(C)C)C(=O)N1 [Compound 100, [beta-hLys](1c)(6c)^†[beta-hTrp]QE(6c)[Y(2-aminoethoxy)][2-Nal][2-Me-Leu]E(1c)[Dab][3-(3-Pyridyl)-Ala]-[NHMe]] ([β3hK][β3hW]QE[AEF][2Nal][αMeL]E[Dab][3Pal]-NHMe; lactam 1-8, N-4)
5 |  | 30 | 103 | CNC(=O)[C@H](Cc1cccnc1)NC(=O)[C@H](CCN)NC(=O)[C@@H]1CCC(=O)NCCCC[C@H]2CC(=O)N[C@@H](Cc3c[nH]c4ccccc34)C(=O)N[C@@H](CCC(N)=O)C(=O)N[C@@H](CCC(=O)N2)C(=O)N[C@@H](Cc2ccc(OCCN)cc2)C(=O)N[C@@H](Cc2ccc3ccccc3c2)C(=O)N[C@@](C)(CC(C)C)C(=O)N1 [Compound 101, [beta-hLys](1c)(6c)^†WQE(6c)[Y(2-aminoethoxy)][2-Nal][2-Me-Leu]E(1c)[Dab][3-(3-Pyridyl)-Ala]-[NHMe]]
6 |  | 4.5 | 97 | CNC(=O)[C@H](Cc1cccnc1)NC(=O)[C@H](CCN)NC(=O)[C@@H]1CCC(=O)N[C@H]2CCCCNC(=O)CC[C@H](NC(=O)[C@H](CCC(N)=O)NC(=O)[C@H](Cc3c[nH]c4ccccc34)NC2=O)C(=O)N[C@@H](Cc2ccc(OCCN)cc2)C(=O)N[C@@H](Cc2ccc3ccccc3c2)C(=O)N[C@@](C)(CC(C)C)C(=O)N1 [Compound 102, [iso-Lys](1c)^t(6c)WQE(6c)[Y(2-aminoethoxy)][2-Nal][2-Me-Leu]E(1c)[Dab][3-(3-Pyridyl)-Ala]-[NHMe]] (KWQE[AEF][2Nal][αMeL]E[Dab][3Pal]-NHMe; lactam 1-4, N-8)
7 |  | 15 | 101 | CNC(=O)[C@H](Cc1cccnc1)NC(=O)[C@H](CCN)NC(=O)[C@@H]1CCC(=O)N[C@H]2CCNC(=O)CC[C@H](NC(=O)[C@H](CCC(N)=O)NC(=O)[C@H](Cc3c[nH]c4ccccc34)NC2=O)C(=O)N[C@@H](Cc2ccc(OCCN)cc2)C(=O)N[C@@H](Cc2ccc3ccccc3c2)C(=O)N[C@@](C)(CC(C)C)C(=O)N1 [Compound 103, [iso-Dab](1c)^†(6c)WQE(6c)[Y(2-aminoethoxy)][2-Nal][2-Me-Leu]E(1c)[Dab][3-(3-Pyridyl)-Ala]-[NHMe]]

Continued, compound first:

Row | Structure (SMILES) | % displacement (hIL-23R NIuc) [%] | IC50 [nM] | Emax [%]
8 | CC[C@H](C)[C@@H]1NC(=O)[C@@H]2CCCCNC(=O)CC[C@@H](C(=O)N[C@@H](CCN)C(=O)N[C@@H](Cc3cncnc3)C(=O)NC)NC(=O)[C@](C)(CC(C)C)NC(=O)[C@H](Cc3ccc4ccccc4c3)NC(=O)[C@H](Cc3ccc(OCCN)cc3)NC(=O)[C@H](CCC(=O)N2)NC(=O)[C@H](CCC(N)=O)NC(=O)[C@H](Cc2c[nH]c3ccccc23)NC(=O)[C@H](C(C)C)NC1=O [Compound 78, K(1c)(6c)^†IVWQE(6c)[Y(2-aminoethoxy)][2-Nal][2-Me-Leu]E(1c)[Dab][3-(3,5-Pyrimidyl)-Ala]-[NHMe]] | 100 | 3 | 
9 | CNC(=O)[C@H](Cc1cccnc1)NC(=O)[C@H](CCN)NC(=O)[C@@H]1CCC(=O)NCCCC[C@@H]2NC(=O)CC[C@H](NC(=O)[C@H](CCC(N)=O)NC(=O)[C@H](Cc3cn(C)c4ccccc34)NC(=O)CCNC2=O)C(=O)N[C@@H](Cc2ccc(OCCN)cc2)C(=O)N[C@@H](Cc2ccc3ccccc3c2)C(=O)N[C@@](C)(CC(C)C)C(=O)N1 [Compound 79, K(1c)(6c)^†[3-Aminopropanoyl][1-Me-Trp]QE(6c)[Y(2-aminoethoxy)][2-Nal][2-Me-Leu]E(1c)[Dab][3-(3-Pyridyl)-Ala]-[NHMe]] (K[βAla][Trp(1-Me)]QE[AEF][2Nal][αMeL]E[Dab][3Pal]-NHMe; lactam 1-9, N-5) |  | 0.02 | 100
10 | CNC(=O)[C@H](Cc1cccnc1)NC(=O)[C@H](CCN)NC(=O)[C@@H]1CCC(=O)NCCCC[C@@H]2NC(=O)CC[C@H](NC(=O)[C@H](CCC(N)=O)NC(=O)[C@H](Cc3c[nH]c4ccccc34)NC(=O)CCNC2=O)C(=O)N[C@@H](CC2CC2)C(=O)N[C@@H](Cc2ccc3ccccc3c2)C(=O)N[C@@](C)(CC(C)C)C(=O)N1 [Compound 82, K(1c)(6c)^†[3-Aminopropanoyl]WQE(6c)[Cyclopropyl-Ala][2-Nal][2-Me-Leu]E(1c)[Dab][3-(3-Pyridyl)-Ala]-[NHMe]] |  | 3.7 | 101
11 | CNC(=O)[C@H](Cc1cccnc1)NC(=O)[C@H](Cc1ccccn1)NC(=O)[C@@H]1CCC(=O)NCCCC[C@@H]2NC(=O)CC[C@H](NC(=O)[C@H](CCC(N)=O)NC(=O)[C@H](Cc3c[nH]c4ccccc34)NC(=O)CCNC2=O)C(=O)N[C@@H](Cc2ccc(OCCN)cc2)C(=O)N[C@@H](Cc2ccc3ccccc3c2)C(=O)N[C@@](C)(CC(C)C)C(=O)N1 [Compound 88, K(1c)(6c)^†[3-Aminopropanoyl]WQE(6c)[Y(2-aminoethoxy)][2-Nal][2-Me-Leu]E(1 c)[3-(2-Pyridyl)-Ala][3-(3-Pyridyl)-Ala]-[NHMe]] |  | 0.052 | 100
12 | CNC(=O)[C@H](Cc1cccnc1)NC(=O)[C@H](Cc1ccncc1)NC(=O)[C@@H]1CCC(=O)NCCCC[C@@H]2NC(=O)CC[C@H](NC(=O)[C@H](CCC(N)=O)NC(=O)[C@H](Cc3c[nH]c4ccccc34)NC(=O)CCNC2=O)C(=O)N[C@@H](Cc2ccc(OCCN)cc2)C(=O)N[C@@H](Cc2ccc3ccccc3c2)C(=O)N[C@@](C)(CC(C)C)C(=O)N1 [Compound 89, K(1c)(6c)^†[3-Aminopropanoyl]WQE(6c)[Y(2-aminoethoxy)][2-Nal][2-Me-Leu]E(1 c)[3-(4-Pyridyl)-Ala][3-(3-Pyridyl)-Ala]-[NHMe]] |  | 0.04 | 100
13 | CNC(=O)[C@H](Cc1cccnc1)NC(=O)[C@H](CCN)NC(=O)[C@@H]1CCC(=O)NCCC[C@@H]2NC(=O)CC[C@H](NC(=O)[C@H](CCC(N)=O)NC(=O)[C@H](Cc3c[nH]c4ccccc34)NC(=O)CNC2=O)C(=O)N[C@@H](Cc2ccc(OCCN)cc2)C(=O)N[C@@H](Cc2ccc3ccccc3c2)C(=O)N[C@@](C)(CC(C)C)C(=O)N1 [Compound 90, [Orn](1c)(6c)^†GWQE(6c)[Y(2-aminoethoxy)][2-Nal][2-Me-Leu]E(1c)[Dab][3-(3-Pyridyl)-Ala]-[NHMe]] |  | 6.4 | 101
14 | CNC(=O)[C@H](Cc1cccnc1)NC(=O)[C@H](CCN)NC(=O)[C@@H]1CCC(=O)NCC[C@@H]2NC(=O)CC[C@H](NC(=O)[C@H](CCC(N)=O)NC(=O)[C@H](Cc3c[nH]c4ccccc34)NC(=O)CNC2=O)C(=O)N[C@@H](Cc2ccc(OCCN)cc2)C(=O)N[C@@H](Cc2ccc3ccccc3c2)C(=O)N[C@@](C)(CC(C)C)C(=O)N1 [Compound 92, [Dab](1c)(6c)^†GWQE(6c)[Y(2-aminoethoxy)][2-Nal][2-Me-Leu]E(1c)[Dab][3-(3-Pyridyl)-Ala]-[NHMe]] |  | 12 | 
15 | CNC(=O)[C@H](Cc1cccnc1)NC(=O)[C@H](CCN)NC(=O)[C@@H]1CCC(=O)NCCCCC[C@@H]2NC(=O)CC[C@H](NC(=O)[C@H](CCC(N)=O)NC(=O)[C@H](Cc3c[nH]c4ccccc34)NC2=O)C(=O)N[C@@H](Cc2ccc(OCCN)cc2)C(=O)N[C@@H](Cc2ccc3ccccc3c2)C(=O)N[C@@](C)(CC(C)C)C(=O)N1 [Compound 93, [hLys](1c)(6c)^†WQE(6c)[Y(2-aminoethoxy)][2-Nal][2-Me-Leu]E(1c)[Dab][3-(3-Pyridyl)-Ala]-[NHMe]] | 99 | 3 | 

Source: patent publication EP4471048A1, “PEPTIDE INHIBITORS OF INTERLEUKIN-23 RECEPTOR” (Zealand Pharma A/S, priority 2023, dated 2024)
